Experimental data as given in patent US8900444B2, “Switchable hydrophilicity solvents and methods of use thereof” (Queen's University at Kingston, priority 2009, dated 2014).
“Also recorded” adds a separate entry of the source. Read-outs that look alike come from different tables or passages of the source.

Assays:
Assay type in all cases: physicochemical
[1] = Miscibility of amines with water in the absence of CO2 (Example 5A)
Procedure: 1 mL of an appropriate amine was combined with 1 mL of H2O in a 4 mL vial, with the 1 and 2 mL volume lines marked. The vial was manually shaken and left to settle at room temperature. After the mixture settled, the number of phases was observed visually. This procedure was performed for all of the screened amines.

[2] = Miscibility of amines with water in the presence of CO2 (Example 5B); conditions: CO2 bubbled through amine/water mixture for at least one hour
Procedure: All of the amines that formed a biphasic mixture in Example 5A were subjected to the following test. Carbon dioxide was bubbled through the amine/water biphasic mixture, via a syringe needle, for at least one hour. Care was taken to regulate the rate of the CO2 bubbling, so as not to cause evaporation of the amine. The liquid-liquid interface was observed over the course of CO2 bubbling, and a photo was taken after 60 minutes.

[3] = Conversion of amine switchable hydrophilicity solvents back to hydrophobic form by heating (Example 5C); conditions: 80 °C, approximately 60 minutes
Procedure: All of the amines identified as switchable hydrophilicity solvents in Example 5B (except N,N-dimethylbutylamine) were subjected to the following test. The vial containing the single-phase amine/water/CO2 mixture prepared in example 5B was heated in an oil bath at 80° C. for approximately 60 minutes. The mixture was magnetically stirred, and phase separation was observed throughout the course of heating. In the case of the N1,N1,N4,N4-tetraethylbutane-1,4-diamine/water/CO2 mixture, 5 hours of heating was required to switch it back to its hydrophobic form.

[4] = Visual and NMR study of amine switchable hydrophilicity solvents (Example 6); conditions: for loss of volume after CO2 bubbling / time of CO2 bubbling to form one homogeneous solution / total volume after CO2 bubbling / number of layers formed without CO2: 1 mL amine + 1 mL D2O; for number of layers formed without CO2: room temperature
Procedure: The following amines were evaluated in this series of experiments: N-ethylpiperidine, N,N-dimethylcyclohexylamine, and N,N-dimethylhexylamine. The sequence of experiments is described for one amine but was performed for all three. The visual observations are described in Table 3. 1,4-Dioxane was used as an internal standard for NMR spectroscopy.
Amine (1 mL) was combined with D2O (1 mL) in a 10 mL graduated cylinder, which was then capped with a rubber septum. The cylinder was manually shaken and left to settle at room temperature, after which the mixture appeared as two transparent liquid phases. For each amine, this procedure was simultaneously conducted in 3 identical cylinders. From the aqueous (bottom) layer of one of the three cylinders, three 250 μL samples were withdrawn, combined with equal volumes of D2O and dioxane internal standard, and analyzed by ^1H NMR spectroscopy. The spectra were consistent with the amine in the aqueous phase being in its neutral form. The graduated cylinder from which the samples were taken was discarded.
For each of two remaining graduated cylinders, carbon dioxide was bubbled through the amine/water biphasic mixture, via a syringe needle, for at least one hour. Care was taken to regulate the rate of the CO2 bubbling, so as not to cause significant evaporation of the amine. The mixture changed from a biphasic liquid mixture to a single homogeneous liquid phase. From one of the two graduated cylinders, a 300 μL sample of the homogenous liquid phase was withdrawn and mixed with an equal volume of D2O and a known quantity of dioxane internal standard. […] The graduated cylinder from which the sample was taken was discarded.
The remaining graduated cylinder, containing the single-phase amine/water/CO2 mixture prepared above, was heated in an oil bath at 80 deg. C for 1 hour. Phase separation was observed. Three 250 μL samples of the aqueous (bottom) layer were withdrawn, combined with equal volumes of D2O and a known quantity of dioxane internal standard, and analyzed by NMR spectroscopy.

[5] = Converting ammonium bicarbonate salt to amine by bubbling air at room temperature (Example 5D)
Procedure: A homogeneous aqueous solution of dimethylcyclohexylammonium bicarbonate was prepared by mixing N,N-dimethylcyclohexylamine (1 mL), and H2O (1 mL) and bubbling with CO2 for 90 minutes. The 2.0 mL solution was placed in a 10 mL graduated cylinder with a magnetic stir bar and that was then stoppered with a rubber septum. Air was bubbled through the solution for a total of 28 hours, with constant stirring. […] Total volume loss after 28 hours was 0.1 mL.

[6] = Water miscibility of amidines in neutral form and after CO2; conditions: for miscibility with water, neutral (unprotonated) amidine form: no CO2
From the text: This represents relatively hydrophilic character. The amidines A-D are unsatisfactory for use as a switchable hydrophilicity solvent because they are insufficiently hydrophobic in their amidine form. […] Since such amidines are not separable from water after switching from their hydrophilic to hydrophobic forms, they are unsuitable for use in the present invention.
Exposure of a 1:1 by volume mixture of two immiscible liquids, hydrophobic PA and water, to gaseous CO2, at 1 atmosphere, caused a conversion to a hydrophilic liquid comprising an aqueous solution of N,N,N′-tripropylbutyramidinium bicarbonate (PAB) (see FIG. 1 for the chemical scheme in which R^1-4 are propyl). NMR data for the PA/water system is presented in FIGS. 4 and 5 and IR data in FIG. 6. FIGS. 4A and 5A show ^1H and ^13C NMR data for PA. After switching, the detection of the N,N,N′-tripropylbutyramidinium bicarbonate salt was confirmed by ^1H and ^13C NMR as shown in FIGS. 4B and 5B.
Similarly, exposure of a 1:1 by volume mixture of two immiscible liquids, hydrophobic BA and water, to gaseous CO2, at 1 atmosphere, caused a conversion to a hydrophilic liquid comprising an aqueous solution of N,N,N′-tributylpentanamidinium bicarbonate (BAB) (see FIG. 1 for the chemical scheme in which R^1-4 are butyl). NMR data for the […] is presented in FIGS. 7 and 8 and IR data in FIG. 9. […] show ^1H and ^13C NMR data for BA. After switching, the detection of the N,N,N′-tributylpentanamidinium bicarbonate salt was confirmed by ^1H and ^13C NMR as shown in FIGS. 6B and 7B. The hydrophilic aqueous solution of BAB was converted back into hydrophobic BA and water by heating at 80° C.

[7] = 1 mL amine + 1 mL H2O, room temperature, visual
[8] = 2.0 mL aqueous solution, stirring

CCCCCCCCCCCCN(C)C [N,N-dimethyldodecylamine, reference compound]
miscibility with water under air (absence of CO2) [1, 7]: biphasic
miscibility with water after CO2 treatment [2]: biphasic

CCCN(C)CCC [methyldipropylamine]
loss of amine during heating (excessive volatility) [3]: loss of amine
miscibility with water under air (absence of CO2) [1, 7]: biphasic
miscibility with water under air (absence of CO2) ([1]; 1 mL amine + 1 mL H2O, room temperature, visual, listed as dipropylmethylamine): immiscible with water
miscibility with water after CO2 treatment [2]: single-phase
miscibility with water after CO2 treatment ([2]; listed as dipropylmethylamine): became water-miscible

CCCCCCN(C)C [N,N-dimethylhexylamine]
miscibility with water under air (absence of CO2) [1, 7]: biphasic
miscibility with water under air (absence of CO2) ([1]; 1 mL amine + 1 mL H2O, room temperature, visual, listed as dimethylhexylamine): immiscible with water
loss of volume after CO2 bubbling [4]: (loss of 0.1 mL)
time of CO2 bubbling to form one homogeneous solution [4]: took 75 min to form one
total volume after CO2 bubbling [4]: total volume is 1.9 mL
number of layers formed without CO2 [4]: formed 2 clear,
time of heating to separate into 2 layers ([4]; oil bath 80 deg. C): after 30 min solution has
volume of bottom (aqueous) layer after heating ([4]; oil bath 80 deg. C): 1 mL
volume of top layer after heating ([4]; oil bath 80 deg. C): 0.9 mL
miscibility with water after CO2 treatment [2]: single-phase
miscibility with water after CO2 treatment ([2]; listed as dimethylhexylamine): became water-miscible

CCN(C(C)C)C(C)C [N,N-diisopropylethylamine, reference compound]
miscibility with water under air (absence of CO2) [1, 7]: biphasic
miscibility with water after CO2 treatment [2]: biphasic

CCCN(CCC)CCC [tripropylamine, reference compound]
miscibility with water under air (absence of CO2) [1, 7]: biphasic
miscibility with water after CO2 treatment [2]: biphasic

CN(C)C1CCCCC1.O=C(O)O [dimethylcyclohexylammonium bicarbonate]
total volume loss after 28 hours of air bubbling [5]: 0.1 mL
volume of bottom layer after 28 hours of air bubbling [5]: 1.6 mL
volume of top layer after 28 hours of air bubbling [5]: 0.3 mL
observation after 8 hours of air bubbling [5, 8]: no observed phase separation or volume loss
observation after 28 hours of air bubbling [5, 8]: a two-phase liquid mixture was observed

CCCCN(C)C [N,N-dimethylbutylamine]
miscibility with water under air (absence of CO2) [1, 7]: biphasic
miscibility with water after CO2 treatment [2]: single-phase

CN(C)Cc1cc(CN(C)C)cc(CN(C)C)c1 [1,1′,1″-(benzene-1,3,5-triyl)tris(N,N-dimethylmethanamine)]
miscibility with water under air (absence of CO2) [1, 7]: biphasic
miscibility with water after CO2 treatment [2]: single-phase

CN(C)CCN(C)C [N,N,N′,N′,-tetramethylethylenediamine, reference compound]
miscibility with water under air (absence of CO2) [1]: single-phase

C1CCC2=NCCCN2CC1 [DBU, 1,8-diazabicyclo-[5.4.0]-undec-7-ene, reference compound]
miscibility with water, neutral (unprotonated) amidine form [6]: water-miscible

CN1CCCCC1 [N-methylpiperidine, reference compound]
miscibility with water under air (absence of CO2) [1, 7]: single-phase

CCCCCCCCN(CCCCCCCC)CCCCCCCC [trioctylamine, reference compound]
miscibility with water under air (absence of CO2) [1, 7]: biphasic
miscibility with water after CO2 treatment [2]: biphasic

CCN1CCCCC1 [N-ethylpiperidine]
miscibility with water under air (absence of CO2) [1, 7]: immiscible with water; also recorded: biphasic
loss of volume after CO2 bubbling [4]: (loss of 0.1 mL)
time of CO2 bubbling to form one homogeneous solution [4]: took 60 min to form one
total volume after CO2 bubbling [4]: total volume is 1.9 mL
number of layers formed without CO2 [4]: formed 2 layers;
amine remaining in the aqueous phase after heating ([4]; 80 deg. C, 1 hour, NMR spectroscopy, dioxane internal standard): showed that approximately 49%
time of heating to separate into 2 layers ([4]; oil bath 80 deg. C): after 30 min, separated into 2
volume of top layer after heating ([4]; oil bath 80 deg. C): 0.7 mL. NMR spectroscopy
miscibility with water after CO2 treatment [2]: became water-miscible; also recorded: single-phase

CN(C)CC1CC(CN(C)C)CC(CN(C)C)C1 (stereo not shown) [1,1′,1″-(cyclohexane-1,3,5-triyl)tris(N,N-dimethylmethanamine]
miscibility with water under air (absence of CO2) [1, 7]: biphasic
miscibility with water after CO2 treatment [2]: single-phase

CCCN(CCC)CCCCN(CCC)CCC [N,N,N′,N′-tetrapropylbutane-1,4-diamine, reference compound]
miscibility with water under air (absence of CO2) [1, 7]: biphasic
miscibility with water after CO2 treatment [2]: biphasic
miscibility with water after CO2 treatment ([2]; listed as Pr2NCH2CH2CH2CH2NPr2): immiscible

CCCCN1CCCC1 [N-butylpyrrolidine]
miscibility with water under air (absence of CO2) [1, 7]: immiscible with water; also recorded: biphasic
miscibility with water after CO2 treatment [2]: became water-miscible; also recorded: single-phase

CCN1CCOCC1 [N-ethylmorpholine, reference compound]
miscibility with water under air (absence of CO2) [1, 7]: single-phase

CCCN=C(CCC)N(CCC)CCC [PA, N,N,N′-tripropylbutyramidine]
miscibility with water after CO2 trigger (amidinium bicarbonate form) ([6]; CO2 and water): became miscible
miscibility with water, neutral (unprotonated) amidine form [6]: immiscible with water

CN(C)CCCCN(C)C [Me2NCH2CH2CH2CH2NMe2, reference compound]
miscibility with water under air (absence of CO2) [1, 7]: miscible

CCCN(CC)CCCCN(CC)CCC [N,N′-dipropyl-N,N′-diethylbutane-1,4-diamine]
miscibility with water under air (absence of CO2) [1, 7]: biphasic
miscibility with water under air (absence of CO2) ([1]; 1 mL amine + 1 mL H2O, room temperature, visual, listed as EtPrNCH2CH2CH2CH2NEtPr): immiscible
miscibility with water after CO2 treatment [2]: single-phase
miscibility with water after CO2 treatment ([2]; listed as EtPrNCH2CH2CH2CH2NEtPr): miscible

CCN(CC)C1CCCCC1 [N,N-diethyl-N-cyclohexylamine]
miscibility with water under air (absence of CO2) [1, 7]: immiscible with water
miscibility with water after CO2 treatment [2]: became water-miscible

CCN(C)CC [N,N-diethyl-N-methylamine]
miscibility with water under air (absence of CO2) [1, 7]: immiscible with water
miscibility with water after CO2 treatment [2]: became water-miscible

CN(C)c1ccccc1 [N,N-dimethylaniline, reference compound]
miscibility with water under air (absence of CO2) [1, 7]: biphasic
miscibility with water after CO2 treatment [2]: biphasic

CCCCCCN=C(C)N(C)C [Me2N—C(═N-hexyl)Me, reference compound]
miscibility with water, neutral (unprotonated) amidine form [6]: water-miscible
